The target in one assay is T1, Fbxo48-V5 (Homo sapiens, UniProt Q5FWF7).
T1 sequence (Q5FWF7 1-155): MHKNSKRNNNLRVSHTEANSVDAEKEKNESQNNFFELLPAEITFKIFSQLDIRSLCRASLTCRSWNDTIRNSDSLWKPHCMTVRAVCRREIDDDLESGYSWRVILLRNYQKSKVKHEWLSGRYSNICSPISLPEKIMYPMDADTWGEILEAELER
The assay can be described thus: cellular thermal shift assay. Type of assay: cell-based. The settings on record: 3 μM BC1618, 30 min, HEK293/293T cells; Fbxo30-V5 as negative control.

Assay [1] deals with T2, Purified human Fbxo48 protein (recombinant, HIS-tagged) (human, UniProt Q5FWF7 1-155).
T2 sequence: T1 sequence (Q5FWF7 1-155)
The assay is described as follows: pull-down.

Where no end group is shown, it is not given here. [ ]: non-standard residue; d: D form. The star is where a group is joined. Biotin = O=C1N[C@H]2[C@H](CS[C@H]2CCCCC(=O)*)N1; pT = C[C@@H](OP(=O)(O)O)[C@H](N)C(=O)O

Regarding `OC(COc1ccc(C(F)(F)F)cc1)CN(Cc1ccccc1)Cc1ccccc1` (centres unmarked) [compound 2, BC1618], the “cellular thermal shift assay (CETSA), immunoblot” value on Fbxo48-V5 is “BC1618 directly interacted with Fbxo48 but not Fbxo30 (negative control)”.
Biotin-DGEFLR[pT]SCGSPN [phospho-Ampkα peptide (Biotin-DGEFLRT(p)SCGSPN)]: the binding result in assay [1] is given as “binds”.

(Values after publication PMC8529588 (Nature chemical biology, 2021).)
